Experimental findings from patent US10106565B2 (priority 2008, dated 2018) are described below.

The subject of one experiment is CD4 T lymphocytes. In words: Proliferation of CD4 T lymphocytes in PBMC induced by IL2 (CFSE dilution, flow cytometry). In kind it is cell-based, human. The settings on record: 20 μM dendrimer; PBMC with IL2; IL2 alone gives 70.2%. The procedure:
Peripheral blood samples are obtained from adult healthy volunteers through the Etablissement Français du Sang (Toulouse, France). Peripheral Blood Mononuclear Cells (PBMC) are isolated by Ficoll density gradient (Amersham Biosciences AB).
PBMC are cultured at a final concentration of 1.5×10^6 cells/mL in complete RPMI 1640 medium, i.e. supplemented with 10% of heat inactivated fetal calf serum (FCS) (Invitrogen), 1 mM sodium pyruvate (Invitrogen), 2 mM L-glutamine, 100 U/mL penicillin and 100 μg/mL streptomycin (Cambrex Bioscience). Proliferation is activated by 400 U/mL of interleukin 2 (IL2) (Sanofi-Aventis) (a “growth factor” for lymphocytes). […]
Proliferation of CD4 T lymphocytes is evaluated by flow cytometry by analyzing the intracellular dilution of a fluorescent probe: the 5,6-carboxyfluorescein diacetate N-succinimidylester (CFSE). […] Then, CFSE dilution is analyzed by flow cytometry to measure the proliferation CD4 T cells. After gating for CD4 positive cells (mouse anti-human CD4-PE-Cy5 clone 13B8.2, Beckman-Coulter), CFSE fluorescence intensities are analyzed, and the percentage of CD4 T cells which have proliferated during the culture is taken into account. […] The overall differences are evaluated by analysis of variance test (ANOVA) with Sigma Stat software (Systat Software).

The test system of a further experiment is human monocytes. In words: Flow cytometry phenotype of dendrimer-activated monocytes (surface markers). In kind it is cell-based. The settings on record: 20 μM, compared with alt- and class-monocytes. The procedure: For the functional experiments, freshly purified monocytes are cultured in 6-well plates. The cells are stimulated for 24 hours (immunophenotyping by flow cytometry analyses, MLR) or 96 hours (CD206 detection) with different stimuli or remain untreated (control). Dendrimer-activated monocytes (da-monocytes) are obtained with 20 μM of the dendrimer Gc1, alternatively-activated monocytes (alt-monocytes) with 10 U/mL recombinant human IL4 (Peprotech). The classical activation of monocytes is obtained by priming the cells over night (18 hours) with 100 U/mL of human recombinant IFN-γ (R&D Systems) and, after a washing step in PBS, by stimulation with 10 ng/mL LPS from E. coli 011/B4 strain (InvivoGen) for the remaining 6 hours or […].
Flow cytometry is performed on a LSR-II cytometer (BD Biosciences). The data are analyzed with FACSDiva (BD Biosciences) or WinMDI softwares. The expression of surface markers is performed using mouse anti-human fluorochrome-conjugated mAbs specific for MHC class II-FITC (clone Tü36), CD86-PE (clone 2331), MHC class I-PE-Cy5 (clone G46-2.6) and CD13-PE (clone WM15) from BD Biosciences and specific for CD64-FITC (clone 22) and CD206-PE (clone 3.29B1.10) from Beckman-Coulter. Appropriate isotype-matched antibodies are used as negative control.
On the technique in general: In flow cytometry, cells or beads pass a laser one at a time.

For the compound `CN(/N=C/c1ccc(OP2(Oc3ccc(/C=N/N(C)P(=S)(Oc4ccc(CCN(CP(=O)(O)O)CP(=O)(O)O)cc4)Oc4ccc(CCN(CP(=O)(O)O)CP(=O)(O)O)cc4)cc3)=NP(Oc3ccc(/C=N/N(C)P(=S)(Oc4ccc(CCN(CP(=O)(O)O)CP(=O)(O)O)cc4)Oc4ccc(CCN(CP(=O)(O)O)CP(=O)(O)O)cc4)cc3)(Oc3ccc(/C=N/N(C)P(=S)(Oc4ccc(CCN(CP(=O)(O)O)CP(=O)(O)O)cc4)Oc4ccc(CCN(CP(=O)(O)O)CP(=O)(O)O)cc4)cc3)=NP(Oc3ccc(/C=N/N(C)P(=S)(Oc4ccc(CCN(CP(=O)(O)O)CP(=O)(O)O)cc4)Oc4ccc(CCN(CP(=O)(O)O)CP(=O)(O)O)cc4)cc3)(c3ccc(/C=N/N(C)P(=S)(Oc4ccc(CCN(CP(=O)(O)O)CP(=O)(O)O)cc4)Oc4ccc(CCN(CP(=O)(O)O)CP(=O)(O)O)cc4)cc3)=N2)cc1)P(=S)(Oc1ccc(CCN(CP(=O)(O)O)CP(=O)(O)O)cc1)Oc1ccc(CCN(CP(=O)(O)O)CP(=O)(O)O)cc1` (centres unmarked) [Gc1], the “CD4 T lymphocytes that have divided” value in the experiment on CD4 T lymphocytes was found to be 17.2%. In addition, in the experiment on human monocytes (24 hours), the “cell surface expression of CD13 (aminopeptidase N)” value is “Class-monocytes express a higher level of CD13 than alt- and da-monocytes”; the “cell surface expression of CD64 (FcγRI)” value was “overexpressed in class-monocytes, but not in alt- or da-monocytes”; the “expression of HLA-DR, HLA-A,B,C and CD86 (antigen-presenting capacity)” value is given as “poor APC”. Further, the “cell surface expression of mannose receptor MRC1 (CD206)” value in the experiment on human monocytes (96 hours) is “strongly enhanced”.
